Results reported in PubChem BioAssay AID1963451 (Molecular Pharmacology Branch, DTP, NCI, 2024).
“And” between values parts separate entries of the source, which are not always exact repeats. Equal values may be shown once.

Tested on: 521955-158-R6-J3-PDC complex spheroid growth, % test/control
Assay: Anticancer human tumor 521955-158-R6-J3-PDC patient-derived pancreatic carcinoma cell line growth inhibition [Asc]
Conditions: for viability, T/C: stronger effect = lower value
Summary of the method: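 Tumor cells were grown as complex spheroids with human endothelial cells (HUVEC) and human mesenchymal stem cells as stroma. Agents were tested alone and in combination, in half-log steps down from the clinical Cmax, or from 10 microM where Cmax was unknown.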
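Note: spheroids exposed to compounds for 7 days.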
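Throughout, for viability, T/C: 100% = DMSO vehicle control wells.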

`C=CC(=O)N1CCN(c2nc(=O)n(-c3c(C)ccnc3C(C)C)c3nc(-c4c(O)cccc4F)c(F)cc23)C(C)C1` (stereo unspecified) + Cc1c(S(C)(=O)=O)c(-c2cc(F)cc(N3CCN(c4ccc(NS(=O)(=O)c5ccc(NC(CCN6CCC(C(=O)OCCCP(=O)(O)O)CC6)CSc6ccccc6)c(S(=O)(=O)C(F)(F)F)c5)cc4)CC3)c2)c(-c2ccc(Cl)cc2)n1C(C)C was tested, and the IC50 (curve of first compound, second compound 0.0316 µM) was greater than 10 µM, the IC50 (curve of first compound, second compound 0.1 µM) was greater than 10 µM and the IC50 (curve of first compound, second compound 0.316 µM) was less than 0.0316 µM. It also gave an IC50 (curve of first compound, second compound 1 µM) of less than 0.0316 µM, an IC50 (curve of first compound, second compound 3.16 µM) of less than 0.0316 µM and an IC50 (curve of first compound, second compound 10 µM) of less than 0.0316 µM. For the same compound, the viability, T/C (second compound 0.0316 µM, first compound 0.0316 µM) was 84.4%, the viability, T/C (second compound 0.0316 µM, first compound 0.1 µM) was 84% and the viability, T/C (second compound 0.0316 µM, first compound 0.316 µM) was 84.6%. For the same compound, the viability, T/C (second compound 0.0316 µM, first compound 1 µM) was 80.3%, the viability, T/C (second compound 0.0316 µM, first compound 3.16 µM) was 79.7% and the viability, T/C (second compound 0.0316 µM, first compound 10 µM) was 79.7%. For the same compound, the viability, T/C (second compound 0.1 µM, first compound 0.0316 µM) was 72.2%, the viability, T/C (second compound 0.1 µM, first compound 0.1 µM) was 72.3% and the viability, T/C (second compound 0.1 µM, first compound 0.316 µM) was 67.6%. For the same compound, the viability, T/C (second compound 0.1 µM, first compound 1 µM) was 68.4%, the viability, T/C (second compound 0.1 µM, first compound 3.16 µM) was 59.6% and the viability, T/C (second compound 0.1 µM, first compound 10 µM) was 50.7%. It also gave a viability, T/C (second compound 0.316 µM, first compound 0.0316 µM) of 47.8%, a viability, T/C (second compound 0.316 µM, first compound 0.1 µM) of 48.4% and a viability, T/C (second compound 0.316 µM, first compound 0.316 µM) of 42.5%. The viability, T/C (second compound 0.316 µM, first compound 1 µM) was 46.3%, the viability, T/C (second compound 0.316 µM, first compound 3.16 µM) was 38.3% and the viability, T/C (second compound 0.316 µM, first compound 10 µM) was 29.2%. The viability, T/C (second compound 1 µM, first compound 0.0316 µM) was 45.6%, the viability, T/C (second compound 1 µM, first compound 0.1 µM) was 36.8% and the viability, T/C (second compound 1 µM, first compound 0.316 µM) was 41.8%. The viability, T/C (second compound 1 µM, first compound 1 µM) was 33.7%, the viability, T/C (second compound 1 µM, first compound 3.16 µM) was 23.6% and the viability, T/C (second compound 1 µM, first compound 10 µM) was 19.8%. The viability, T/C (second compound 3.16 µM, first compound 0.0316 µM) was 23.1%, the viability, T/C (second compound 3.16 µM, first compound 0.1 µM) was 22.8% and the viability, T/C (second compound 3.16 µM, first compound 0.316 µM) was 17.4%. It also gave a viability, T/C (second compound 3.16 µM, first compound 1 µM) of 15.6%, a viability, T/C (second compound 3.16 µM, first compound 3.16 µM) of 12.6% and a viability, T/C (second compound 3.16 µM, first compound 10 µM) of 7.39%. For the same compound, the viability, T/C (second compound 10 µM, first compound 0.0316 µM) was 12.7%, the viability, T/C (second compound 10 µM, first compound 0.1 µM) was 9.59% and the viability, T/C (second compound 10 µM, first compound 0.316 µM) was 12.5%. It also gave a viability, T/C (second compound 10 µM, first compound 1 µM) of 9.66%, a viability, T/C (second compound 10 µM, first compound 3.16 µM) of 23.2% and a viability, T/C (second compound 10 µM, first compound 10 µM) of 8.51%.

With `CNC(C)C(=O)NC1CN(S(=O)(=O)c2cccc(S(=O)(=O)N3CCC4CCC(C(=O)NC(c5ccccc5)c5ccccc5)N4C(=O)C(NC(=O)C(C)NC)C3)c2)CCC2CCC(C(=O)NC(c3ccccc3)c3ccccc3)N2C1=O` (stereo unspecified) + CCN1C(C(=O)NC23CCC(C(=O)O)(CC2)CC3)C(c2cccc(Cl)c2F)C2(C(=O)Nc3cc(Cl)ccc32)C12CCCCC2 the IC50 (curve of first compound, second compound 0.00949 µM) was greater than 1 µM, the IC50 (curve of first compound, second compound 0.03 µM) was greater than 1 µM and the IC50 (curve of first compound, second compound 0.0949 µM) was greater than 1 µM. The IC50 (curve of first compound, second compound 0.3 µM) was greater than 1 µM, the IC50 (curve of first compound, second compound 0.949 µM) was greater than 1 µM and the IC50 (curve of first compound, second compound 3 µM) was greater than 1 µM. For the same compound, the viability, T/C (second compound 0.00949 µM, first compound 0.00316 µM) was 110%, the viability, T/C (second compound 0.00949 µM, first compound 0.01 µM) was 95.2% and the viability, T/C (second compound 0.00949 µM, first compound 0.0316 µM) was 83.7%. It also gave a viability, T/C (second compound 0.00949 µM, first compound 0.1 µM) of 89.8%, a viability, T/C (second compound 0.00949 µM, first compound 0.316 µM) of 89.7% and a viability, T/C (second compound 0.00949 µM, first compound 1 µM) of 89.7%. It also gave a viability, T/C (second compound 0.03 µM, first compound 0.00316 µM) of 91.8%, a viability, T/C (second compound 0.03 µM, first compound 0.01 µM) of 96% and a viability, T/C (second compound 0.03 µM, first compound 0.0316 µM) of 113%. It also gave a viability, T/C (second compound 0.03 µM, first compound 0.1 µM) of 101%, a viability, T/C (second compound 0.03 µM, first compound 0.316 µM) of 69% and a viability, T/C (second compound 0.03 µM, first compound 1 µM) of 81.5%. The viability, T/C (second compound 0.0949 µM, first compound 0.00316 µM) was 102%, the viability, T/C (second compound 0.0949 µM, first compound 0.01 µM) was 89.9% and the viability, T/C (second compound 0.0949 µM, first compound 0.0316 µM) was 92.3%. It also gave a viability, T/C (second compound 0.0949 µM, first compound 0.1 µM) of 86.9%, a viability, T/C (second compound 0.0949 µM, first compound 0.316 µM) of 76.9% and a viability, T/C (second compound 0.0949 µM, first compound 1 µM) of 86.2%. The viability, T/C (second compound 0.3 µM, first compound 0.00316 µM) was 96.2%, the viability, T/C (second compound 0.3 µM, first compound 0.01 µM) was 111% and the viability, T/C (second compound 0.3 µM, first compound 0.0316 µM) was 100%. The viability, T/C (second compound 0.3 µM, first compound 0.1 µM) was 99.8%, the viability, T/C (second compound 0.3 µM, first compound 0.316 µM) was 93.5% and the viability, T/C (second compound 0.3 µM, first compound 1 µM) was 95%. The viability, T/C (second compound 0.949 µM, first compound 0.00316 µM) was 106%, the viability, T/C (second compound 0.949 µM, first compound 0.01 µM) was 85.1% and the viability, T/C (second compound 0.949 µM, first compound 0.0316 µM) was 93.7%. For the same compound, the viability, T/C (second compound 0.949 µM, first compound 0.1 µM) was 101%, the viability, T/C (second compound 0.949 µM, first compound 0.316 µM) was 96.8% and the viability, T/C (second compound 0.949 µM, first compound 1 µM) was 109%. It also gave a viability, T/C (second compound 3 µM, first compound 0.00316 µM) of 95%, a viability, T/C (second compound 3 µM, first compound 0.01 µM) of 96% and a viability, T/C (second compound 3 µM, first compound 0.0316 µM) of 108%. It also gave a viability, T/C (second compound 3 µM, first compound 0.1 µM) of 86.2%, a viability, T/C (second compound 3 µM, first compound 0.316 µM) of 96.6% and a viability, T/C (second compound 3 µM, first compound 1 µM) of 80.8%.

With `NC(=O)C(=Cn1cnc(-c2cc(C(F)(F)F)cc(C(F)(F)F)c2)n1)c1cncnc1` the viability, T/C (compound 0.000949 µM) was 105% and 126% and 111%, the viability, T/C (compound 0.003 µM) was 96.3% and 105% and 115% and the viability, T/C (compound 0.00949 µM) was 84.8% and 93.3% and 105%. For the same compound, the viability, T/C (compound 0.03 µM) was 98% and 98.2% and 115%, the viability, T/C (compound 0.0949 µM) was 124% and 107% and 73.9% and the viability, T/C (compound 0.3 µM) was 121% and 93.9% and 62.7%. The IC50 (curve of compound) was greater than 0.3 µM.
